Among the data in US20250122219A1 (priority 2023, published 2025) are EC50 and CC50 values, retold here.

pEC50: −log10 of the molar value.

Data set [1] has as its system HIV-1 (IIIB). The experiment in a line: Antiviral assay in MT-4 cells. To be noted: Human immunodeficiency virus 1, MT4, 120 h; HIV-1 IIIB in MT-4 cells, 5 days incubation, Cell Titer Glo; read-out: MT4 EC50. The data set is classed as cell-based. The procedure: Compounds were tested in a high-throughput 384-well assay format for their ability to inhibit the replication of HIV-1 (IIIB) in MT-4 cells. Compounds were serially diluted (1.3) in DMSO on 384-well polypropylene plates and further diluted 200-fold into complete RPMI media (10% FBS, 1% P/S) using the Biotek Micro Flow and Labcyte ECHO acoustic dispenser. Each plate contained up to 8 test compounds, with negative (No Drug Control) and 5 μM AZT positive controls. MT-4 cells were pre-infected with 10 μL of either RPMI (mock-infected) or a fresh 1:250 dilution of HIV-1 IIIB concentrated virus stock. Infected and uninfected MT-4 cells were further diluted in complete RPMI media and added to each plate using a Micro Flow dispenser. After 5 days incubation in a humidified and temperature controlled incubator (37° C.), Cell Titer Glo (Promega) was added to the assay plates and chemiluminescence read using an Envision plate-reader.

Data set [2] is described as follows: Cytotoxicity assay in MT-4 cells. To be noted: human; uninfected MT-4 cells, 5 days incubation, Cell Titer Glo; read-out: MT4 CC50. It counts as cell-based. The gist of the method:
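Viability read by Cell Titer Glo luminescence after 5 days at 37 °C. MT-4 cells, not infected, in complete RPMI (10% FBS), received compound dilution series. Base cytotoxicity set with […] puromycin.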

Turning to `CCCCCC(=O)Oc1c2n(cc(C(=O)NCc3ccc(F)cc3F)c1=O)[C@@H]1CN(C2=O)[C@@H](C)CC[C@]12CC(C)=NO2` [Example 37, (3′S,5S,7′R)-10′-((2,4-difluorobenzyl)carbamoyl)-3,3′-dimethyl-1′,11′-dioxo-1′,4′,5′,11′-tetrahydro-3′H,4H,7′H-spiro[isoxazole-5,6′-[2,7]methanopyrido[1,2-a][1,4]diazonin]-12′-yl hexanoate], the pEC50 in data set [1] is 9.39. For the same compound, the CC50 at 5 days in data set [2] came out at 17.4 µM.
As to `CCCCCCC(=O)Oc1c2n(cc(C(=O)NCc3ccc(F)cc3F)c1=O)[C@@H]1CN(C2=O)[C@@H](C)CC[C@]12CC(OC)=NO2` [Example 38, (3′S,5S,7′R)-10′-((2,4-difluorobenzyl)carbamoyl)-3-methoxy-3′-methyl-1′,11′-dioxo-1′,4′,5′,11′-tetrahydro-3′H,4H,7′H-spiro[isoxazole-5,6′-[2,7]methanopyrido[1,2-a][1,4]diazonin]-12′-yl heptanoate], in data set [1], the pEC50 was 9.48. Also, in data set [2], the CC50 at 5 days turned out to be 25.7 µM.
The matching figures for `CCCCCCC(=O)Oc1c2n(cc(C(=O)NCc3ccc(F)cc3F)c1=O)[C@@H]1CN(C2=O)[C@@H](C)CC[C@]12CC(C)=NO2` [Example 39, (3′S,5S,7′R)-10′-((2,4-difluorobenzyl)carbamoyl)-3,3′-dimethyl-1′,11′-dioxo-1′,4′,5′,11′-tetrahydro-3′H,4H,7′H-spiro[isoxazole-5,6′-[2,7]methanopyrido[1,2-a][1,4]diazonin]-12′-yl heptanoate]: 9.12 and 23.7 µM.
Regarding `CCCCCCCC(=O)Oc1c2n(cc(C(=O)NCc3ccc(F)cc3F)c1=O)[C@@H]1CN(C2=O)[C@@H](C)CC[C@]12CC(OC)=NO2` [Example 40, (3′S,5S,7′R)-10′-((2,4-difluorobenzyl)carbamoyl)-3-methoxy-3′-methyl-1′,11′-dioxo-1′,4′,5′,11′-tetrahydro-3′H,4H,7′H-spiro[isoxazole-5,6′-[2,7]methanopyrido[1,2-a][1,4]diazonin]-12′-yl octanoate], the pEC50 in data set [1] is 9.23. Further, the CC50 at 5 days in data set [2] was 25.1 µM.
`CCCCCCCC(=O)Oc1c2n(cc(C(=O)NCc3ccc(F)cc3F)c1=O)[C@@H]1CN(C2=O)[C@@H](C)CC[C@]12CC(C)=NO2` [Example 41, (3′S,5S,7′R)-10′-((2,4-difluorobenzyl)carbamoyl)-3,3′-dimethyl-1′,11′-dioxo-1′,4′,5′,11′-tetrahydro-3′H,4H,7′H-spiro[isoxazole-5,6′-[2,7]methanopyrido[1,2-a][1,4]diazonin]-12′-yl octanoate]: the pEC50 in data set [1] is 9.50. The CC50 at 5 days in data set [2] amounted to 11.5 µM.
`CCCCCCCCC(=O)Oc1c2n(cc(C(=O)NCc3ccc(F)cc3F)c1=O)[C@@H]1CN(C2=O)[C@@H](C)CC[C@]12CC(OC)=NO2` [Example 42, (3′S,5S,7′R)-10′-((2,4-difluorobenzyl)carbamoyl)-3-methoxy-3′-methyl-1′,11′-dioxo-1′,4′,5′,11′-tetrahydro-3′H,4H,7′H-spiro[isoxazole-5,6′-[2,7]methanopyrido[1,2-a][1,4]diazonin]-12′-yl nonanoate]: in data set [1], the pEC50 is 8.71. The CC50 at 5 days in data set [2] is 40.6 µM.
`CCCCCCCCC(=O)Oc1c2n(cc(C(=O)NCc3ccc(F)cc3F)c1=O)[C@@H]1CN(C2=O)[C@@H](C)CC[C@]12CC(C)=NO2` [Example 43, (3′S,5S,7′R)-10′-((2,4-difluorobenzyl)carbamoyl)-3,3′-dimethyl-1′,11′-dioxo-1′,4′,5′,11′-tetrahydro-3′H,4H,7′H-spiro[isoxazole-5,6′-[2,7]methanopyrido[1,2-a][1,4]diazonin]-12′-yl nonanoate]: the pEC50 in data set [1] was 8.71. The CC50 at 5 days in data set [2] is 21.1 µM.
